{
  "source": "patent US5571836A",
  "about": "“Viral attachment inhibitors” (priority 1995, dated 1996)",
  "key": {"[1]": {"test_system": "influenza virus USSR/90/77", "assay": "Fetuin binding inhibition assay, influenza virus USSR/90/77", "settings": "for A^i (absorbance): 492 nm"}, "[2]": {"test_system": "influenza virus Chile/1/83", "assay": "Fetuin binding inhibition assay, influenza virus Chile/1/83", "settings": "for A^i (absorbance): 492 nm"}, "[3]": {"test_system": "influenza virus Taiwan/1/86", "assay": "Fetuin binding inhibition assay, influenza virus Taiwan/1/86", "settings": "for A^i (absorbance): 492 nm"}, "influenza virus X-31": {"test_system": "influenza virus X-31", "assay": "Fetuin binding inhibition assay, influenza virus X-31", "settings": "for A^i (absorbance): 492 nm"}, "[4]": {"test_system": "influenza virus England/321/77", "assay": "Fetuin binding inhibition assay, influenza virus England/321/77", "settings": "for A^i (absorbance): 492 nm"}, "[5]": {"test_system": "influenza virus USSR/2/85", "assay": "Fetuin binding inhibition assay, influenza virus USSR/2/85", "settings": "for A^i (absorbance): 492 nm"}, "[6]": {"test_system": "influenza virus USSR/3/85", "assay": "Fetuin binding inhibition assay, influenza virus USSR/3/85", "settings": "for A^i (absorbance): 492 nm"}, "[7]": {"test_system": "influenza virus B/Hong Kong/8/73", "assay": "Fetuin binding inhibition assay, influenza virus B/Hong Kong/8/73", "settings": "for A^i (absorbance): 492 nm"}, "[8]": {"test_system": "influenza virus B/Singapore/222/79", "assay": "Fetuin binding inhibition assay, influenza virus B/Singapore/222/79"}},
  "note": "Counter-ions that a name gives are not always drawn.",
  "data": [
    {"smiles": "CC(=O)NC1C(O)CC(OCc2ccccc2)(C(=O)O)OC1C(O)C(O)CO", "note": "[IX, benzyl 5-acetamido-3,5-dideoxy-α-D-glycero-D-galacto-nonulopyranosidonic acid (sodium salt), reference compound]", "values": [
      {"measurement": "-lgKd(i)", "setting": "[1]; 1.28 mM sialoside", "value": 2.8},
      {"measurement": "A^i (absorbance)", "setting": "[1]; 1.28 mM sialoside", "value": 0.6},
      {"measurement": "-lgKd(i)", "setting": "[1]; .16 mM sialoside", "value": 3.1},
      {"measurement": "A^i (absorbance)", "setting": "[1]; .16 mM sialoside", "value": 0.8},
      {"measurement": "-lgKd(i)", "setting": "[1]; .32 mM sialoside", "value": 3.1},
      {"measurement": "A^i (absorbance)", "setting": "[1]; .32 mM sialoside", "value": 0.7},
      {"measurement": "-lgKd ± SD", "setting": "[1]; mean over concentrations", "value": "3.0 ± 0.17"},
      {"measurement": "-lgKd(i)", "setting": "[2]; 1.28 mM sialoside", "value": 3.4},
      {"measurement": "A^i (absorbance)", "setting": "[2]; 1.28 mM sialoside", "value": 0.42},
      {"measurement": "-lgKd(i)", "setting": "[2]; .16 mM sialoside", "value": 3.2},
      {"measurement": "A^i (absorbance)", "setting": "[2]; .16 mM sialoside", "value": 0.9},
      {"measurement": "-lgKd(i)", "setting": "[2]; .32 mM sialoside", "value": 3.4},
      {"measurement": "A^i (absorbance)", "setting": "[2]; .32 mM sialoside", "value": 0.72},
      {"measurement": "-lgKd(i)", "setting": "[2]; .64 mM sialoside", "value": 3.3},
      {"measurement": "A^i (absorbance)", "setting": "[2]; .64 mM sialoside", "value": 0.62},
      {"measurement": "-lgKd ± SD", "setting": "[2]; mean over concentrations", "value": "3.3 ± 0.1"},
      {"measurement": "-lgKd(i)", "setting": "[3]; 1.28 mM sialoside", "value": 3.0},
      {"measurement": "A^i (absorbance)", "setting": "[3]; 1.28 mM sialoside", "value": 0.22},
      {"measurement": "-lgKd(i)", "setting": "[3]; .32 mM sialoside", "value": 2.8},
      {"measurement": "A^i (absorbance)", "setting": "[3]; .32 mM sialoside", "value": 0.36},
      {"measurement": "-lgKd(i)", "setting": "[3]; .64 mM sialoside", "value": 2.9},
      {"measurement": "A^i (absorbance)", "setting": "[3]; .64 mM sialoside", "value": 0.31},
      {"measurement": "-lgKd ± SD", "setting": "[3]; mean over concentrations", "value": "2.9 ± 0.1"},
      {"measurement": "-lgKd(i)", "setting": "influenza virus X-31; 1.28 mM sialoside", "value": 2.8},
      {"measurement": "A^i (absorbance)", "setting": "influenza virus X-31; 1.28 mM sialoside", "value": 0.66},
      {"measurement": "-lgKd(i)", "setting": "influenza virus X-31; .32 mM sialoside", "value": 3.1},
      {"measurement": "A^i (absorbance)", "setting": "influenza virus X-31; .32 mM sialoside", "value": 0.86},
      {"measurement": "-lgKd(i)", "setting": "influenza virus X-31; .64 mM sialoside", "value": 2.7},
      {"measurement": "A^i (absorbance)", "setting": "influenza virus X-31; .64 mM sialoside", "value": 0.84},
      {"measurement": "-lgKd ± SD", "setting": "influenza virus X-31; mean over concentrations", "value": "2.9 ± 0.21"},
      {"measurement": "-lgKd(i)", "setting": "[4]; .08 mM sialoside", "value": 4.4},
      {"measurement": "A^i (absorbance)", "setting": "[4]; .08 mM sialoside", "value": 0.49},
      {"measurement": "-lgKd(i)", "setting": "[4]; .16 mM sialoside", "value": 4.6},
      {"measurement": "A^i (absorbance)", "setting": "[4]; .16 mM sialoside", "value": 0.21},
      {"measurement": "-lgKd(i)", "setting": "[4]; .32 mM sialoside", "value": 4.5},
      {"measurement": "A^i (absorbance)", "setting": "[4]; .32 mM sialoside", "value": 0.13},
      {"measurement": "-lgKd(i)", "setting": "[4]; .64 mM sialoside", "value": 4.8},
      {"measurement": "A^i (absorbance)", "setting": "[4]; .64 mM sialoside", "value": 0.04},
      {"measurement": "-lgKd ± SD", "setting": "[4]; mean over concentrations", "value": "4.5 ± 0.1"},
      {"measurement": "-lgKd(i)", "setting": "[5]; 1.28 mM sialoside", "value": 3.5},
      {"measurement": "A^i (absorbance)", "setting": "[5]; 1.28 mM sialoside", "value": 0.12},
      {"measurement": "-lgKd(i)", "setting": "[5]; .32 mM sialoside", "value": 3.1},
      {"measurement": "A^i (absorbance)", "setting": "[5]; .32 mM sialoside", "value": 0.32},
      {"measurement": "-lgKd(i)", "setting": "[5]; .64 mM sialoside", "value": 3.3},
      {"measurement": "A^i (absorbance)", "setting": "[5]; .64 mM sialoside", "value": 0.25},
      {"measurement": "-lgKd ± SD", "setting": "[5]; mean over concentrations", "value": "3.3 ± 0.2"},
      {"measurement": "-lgKd(i)", "setting": "[6]; 1.28 mM sialoside", "value": 4.5},
      {"measurement": "A^i (absorbance)", "setting": "[6]; 1.28 mM sialoside", "value": 0.06},
      {"measurement": "-lgKd(i)", "setting": "[6]; .08 mM sialoside", "value": 4.5},
      {"measurement": "A^i (absorbance)", "setting": "[6]; .08 mM sialoside", "value": 0.5},
      {"measurement": "-lgKd(i)", "setting": "[6]; .16 mM sialoside", "value": 4.6},
      {"measurement": "A^i (absorbance)", "setting": "[6]; .16 mM sialoside", "value": 0.28},
      {"measurement": "-lgKd(i)", "setting": "[6]; .32 mM sialoside", "value": 4.6},
      {"measurement": "A^i (absorbance)", "setting": "[6]; .32 mM sialoside", "value": 0.16},
      {"measurement": "-lgKd(i)", "setting": "[6]; .64 mM sialoside", "value": 4.6},
      {"measurement": "A^i (absorbance)", "setting": "[6]; .64 mM sialoside", "value": 0.08},
      {"measurement": "-lgKd ± SD", "setting": "[6]; mean over concentrations", "value": "4.6 ± 0.05"},
      {"measurement": "-lgKd(i)", "setting": "[7]; 1.28 mM sialoside", "value": 3.0},
      {"measurement": "A^i (absorbance)", "setting": "[7]; 1.28 mM sialoside", "value": 0.32},
      {"measurement": "-lgKd(i)", "setting": "[7]; .32 mM sialoside", "value": 2.7},
      {"measurement": "A^i (absorbance)", "setting": "[7]; .32 mM sialoside", "value": 0.55},
      {"measurement": "-lgKd(i)", "setting": "[7]; .64 mM sialoside", "value": 2.8},
      {"measurement": "A^i (absorbance)", "setting": "[7]; .64 mM sialoside", "value": 0.48},
      {"measurement": "-lgKd ± SD", "setting": "[7]; mean over concentrations", "value": "2.8 ± 0.15"},
      {"measurement": "-lgKd(i)", "setting": "[8]; 1.28 mM sialoside", "value": 3.4},
      {"measurement": "A^i (absorbance)", "setting": "[8]; 1.28 mM sialoside, 492 nm", "value": 0.39},
      {"measurement": "-lgKd(i)", "setting": "[8]; .16 mM sialoside", "value": 3.4}
    ]}
  ]
}
